Reference: article PMC7926352, “Synthesis, Characterization and In Vitro Evaluation of Novel 5-Ene-thiazolo[3,2-b][1,2,4]triazole-6(5H)-ones as Possible Anticancer Agents” (Molecules, 2021)
Read-outs that look alike come from different tables or passages of the source.

Key:
[1] = tested on: human embryonic kidney (HEK 293) cell lines; test: MTT cytotoxicity assay; type: cell-based; conditions: HEK 293, MTT, 24 h
Method: Compounds 2h and 2i were also evaluated in vitro for their cytotoxic potential against human embryonic kidney (HEK 293) cell lines using the MTT assay.
The cytotoxicity of compounds 2h and 2i was analyzed in vitro by the MTT colorimetric assay on human embryonic kidney cell lines (HEK 293). HEK cell lines were cultured in DMEM supplemented with 10% fetal calf serum and 1% antibiotic-antimycotic mixture culture plates at 37 °C and 5% CO2-humidified incubator. Cells were seeded at a density of 1 × 10^5 cells/well in 96-well plate for 24 h; then, cells were washed and incubated in fresh medium. Compounds 2h and 2i were added at a concentration of 1, 5, 10, 25, and 50 μg/mL to triplicate wells and kept for 24 h, after which cells were washed three times with PBS. After washing, 20 μL of MTT solution (5 mg/mL stock solution) were added to each well, and cells were then incubated for an additional 4 h. The unreacted MTT dye and medium were aspirated off, and 100 μL of DMSO was added to each well to ensure solubilization of formazan crystals. The contents of the plates were mixed for 15 min to achieve complete solubilization of the formazan crystals, and the measurement of optical density was carried out at 570 nm with a micro plate spectrophotometer (MRX Microplate Reader, Dynatech Laboratories Inc., Chantilly, VA, USA) at 570 nm.

A549/ATCC = type: cell-based; conditions: NSCLC
NCI-H226 = type: cell-based; conditions: NCI-H226, NSCLC
SNB-19 = type: cell-based; conditions: SNB-19, CNS Cancer
HL-60 (TB) = conditions: HL-60 (TB), Leukemia
MOLT-4 = conditions: MOLT-4, Leukemia
RPMI-8226 = conditions: RPMI-8226, Leukemia
SR = conditions: Leukemia
HOP-92 = conditions: HOP-92, NSCLC
NCI-H522 = conditions: NCI-H522, NSCLC
U251 = conditions: U251, CNS Cancer
MALME-3M = conditions: MALME-3M, Melanoma
SK-MEL-2 = conditions: SK-MEL-2, Melanoma
SK-MEL-28 = conditions: SK-MEL-28, Melanoma
UACC-257 = conditions: UACC-257, Melanoma
UACC-62 = conditions: UACC-62, Melanoma
OVCAR-3 = conditions: OVCAR-3, Ovarian Cancer
OVCAR-4 = conditions: OVCAR-4, Ovarian Cancer
SK-OV-3 = conditions: SK-OV-3, Ovarian Cancer
TK-10 = conditions: TK-10, Renal Cancer
UO-31 = conditions: UO-31, Renal Cancer
DU-145 = conditions: DU-145, Prostate Cancer
[2] = tested on: NSCLC (Non-small Cell Lung Cancer) cell lines; conditions: NSCLC subpanel
[3] = tested on: Ovarian Cancer cell lines; conditions: Ovarian Cancer subpanel
Breast Cancer cell lines = conditions: Breast Cancer subpanel
[4] = read-out: LC50 (the source's name)
[5] = read-out: GI50, values range inside panel

## Ethyl(Z)-4-(3-(4-chloro-2-((6-oxothiazolo[3,2-b][1,2,4]triazol-5(6H)-ylidene)methyl)phenyl)propanamido)benzoate [Compound 2i]
[1]
  IC50: 24.4 µM
A549/ATCC
  GI50: 19.5 µM
  TGI: 39.81 µM
A549/ATCC; [4]
  CC50: 79.4 µM
NCI-H226
  GI50: 17 µM
  LC50 (50% lethal concentration): 67.6 µM
  TGI: 33.11 µM
SNB-19
  GI50: 10.2 µM
  TGI: 23.44 µM
SNB-19; [4]
  CC50: 52.5 µM
HL-60 (TB)
  GI50: 12.3 µM
  TGI: 41.68 µM
HL-60 (TB); read-out: LC50
  CC50: > 100 µM
MOLT-4
  GI50: 18.2 µM
  TGI: 52.48 µM
RPMI-8226
  GI50: 5.37 µM
  TGI: 25.70 µM
SR
  GI50: 11 µM
  TGI: 79.43 µM
HOP-92
  GI50: 10.2 µM
  TGI: 29.51 µM
NCI-H522
  GI50: 11.7 µM
  TGI: 28.84 µM
U251
  GI50: 6.6 µM
  TGI: 19.05 µM
MALME-3M
  GI50: 14.8 µM
  TGI: 28.18 µM
SK-MEL-2
  GI50: 14.5 µM
  TGI: 33.11 µM
SK-MEL-28
  GI50: 12 µM
  TGI: 23.98 µM
UACC-257
  GI50: 10.5 µM
  TGI: 25.70 µM
UACC-62
  GI50: 13.8 µM
  TGI: 26.30 µM
OVCAR-3
  GI50: 13.8 µM
  TGI: 27.54 µM
OVCAR-4
  GI50: 12.9 µM
  TGI: 38.90 µM
SK-OV-3
  GI50: 19.9 µM
  TGI: 35.48 µM
TK-10
  GI50: 16.2 µM
  TGI: 29.51 µM
UO-31
  GI50: 15.1 µM
  TGI: 29.51 µM
DU-145
  GI50: 3.98 µM
  TGI: 16.21 µM
[2]
  TGI, panel MG_MID: 30.03 µM
  TGI, values range inside panel: 25.70 to 39.81 µM
[2]; read-out: GI50, panel MG_MID
  GI50: 14.1 µM
[2]; [5]
  GI50: 10.2 to 19.5 µM
[3]
  TGI, panel MG_MID: 31.15 µM
  TGI, values range inside panel: 20.89 to 38.90 µM
[3]; read-out: GI50, panel MG_MID
  GI50: 13.7 µM
Breast Cancer cell lines
  TGI, panel MG_MID: 30.29 µM
Breast Cancer cell lines; read-out: GI50, panel MG_MID
  GI50: 9.72 µM
Breast Cancer cell lines; [5]
  GI50: 3.54 to 21.9 µM
